Structures are written as SMILES. pIC50: −log10 of the molar value.

Sequence of CD73 (P21589 27-574): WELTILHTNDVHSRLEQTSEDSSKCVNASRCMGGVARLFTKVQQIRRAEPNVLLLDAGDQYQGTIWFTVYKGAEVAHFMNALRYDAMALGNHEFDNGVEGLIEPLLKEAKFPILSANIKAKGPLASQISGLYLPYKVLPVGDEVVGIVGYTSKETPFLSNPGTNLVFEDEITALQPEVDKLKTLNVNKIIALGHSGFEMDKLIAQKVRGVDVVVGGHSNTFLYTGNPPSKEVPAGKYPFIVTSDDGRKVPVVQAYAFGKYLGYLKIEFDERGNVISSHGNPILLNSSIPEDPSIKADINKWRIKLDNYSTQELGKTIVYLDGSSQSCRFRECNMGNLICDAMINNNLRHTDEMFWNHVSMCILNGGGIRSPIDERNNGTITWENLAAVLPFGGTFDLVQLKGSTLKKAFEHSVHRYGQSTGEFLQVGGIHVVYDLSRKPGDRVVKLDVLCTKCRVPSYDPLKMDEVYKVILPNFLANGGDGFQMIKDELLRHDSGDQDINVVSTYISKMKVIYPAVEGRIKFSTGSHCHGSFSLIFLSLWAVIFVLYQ

The assay has as its target CD73 (Homo sapiens (Human), UniProt P21589). Kind of assay: Biochemical assay: inhibition of CD73 activity (AMP hydrolysis, Malachite Green readout). As to conditions: CD73 0.3208 nM, AMP 15 μM, 25 mM Tris-HCl pH 7.4, RT, absorbance 620 nm. The method in brief: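 Human CD73 (320 pM final) preincubated 15 min at RT with compounds (10-point ½-log titration from 100 μM, duplicates) in 25 mM Tris-HCl pH 7.4, 5 mM MgCl2, 0.01% Brij-35, 0.01% BSA. 15 μM AMP added, 10 min at RT; released phosphate read by Malachite Green absorbance; IC50 determined.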
Turning to `COCC(C)(OC[C@H]1O[C@H](n2nnc3c(N[C@@H]4CCc5ccccc54)nc(Cl)nc32)[C@H](O)[C@@H]1O)P(=O)(O)O` (stereo partly drawn) [Example 154, (2-(((2R,3S,4R,5S)-5-(5-chloro-7-(((R)-2,3-dihydro-1H-inden-1-yl)amino)-3H-[1,2,3]triazolo[4,5-d]pyrimidin-3-yl)-3,4-dihydroxytetrahydrofuran-2-yl)methoxy)-1-methoxypropan-2-yl)phosphonic acid], the pIC50 is ≥ 7.00.

Take `COCC(C)(OC[C@H]1O[C@@H](n2nnc3c(N[C@@H]4CCc5ccccc54)nc(Cl)nc32)[C@H](O)[C@@H]1O)P(=O)(O)O` (stereo partly drawn) [Example 155, (2-(((2R,3S,4R,5R)-5-(5-chloro-7-(((R)-2,3-dihydro-1H-inden-1-yl)amino)-3H-[1,2,3]triazolo[4,5-d]pyrimidin-3-yl)-3,4-dihydroxytetrahydrofuran-2-yl)methoxy)-1-methoxypropan-2-yl)phosphonic acid]: the negative logarithm of the IC50 (pIC50) is ≥ 7.00.

Consider `CCOCC(C)(OC[C@H]1O[C@@H](n2ncc3c(NC4CCCC4)nc(Cl)nc32)[C@H](O)[C@@H]1O)P(=O)(O)O` (stereo partly drawn) [Example 156, (2-(((2R,3S,4R,5R)-5-(6-chloro-4-(cyclopentylamino)-1H-pyrazolo[3,4-d]pyrimidin-1-yl)-3,4-dihydroxytetrahydrofuran-2-yl)methoxy)-1-ethoxypropan-2-yl)phosphonic acid], for which the pIC50 was ≥ 7.00.

As for `COC[C@H](OC[C@H]1O[C@@H](n2nnc3c(NC4CCCC4)cc(Cl)nc32)[C@H](O)[C@@H]1O)P(=O)(O)O` [Example 157, ((R)-1-(((2R,3S,4R,5R)-5-(5-chloro-7-(cyclopentylamino)-3H-[1,2,3]triazolo[4,5-b]pyridin-3-yl)-3,4-dihydroxytetrahydrofuran-2-yl)methoxy)-2-methoxyethyl)phosphonic acid], the negative logarithm of the IC50 (pIC50) was ≥ 7.00.

Turning to `COCC(C)(OC[C@H]1O[C@@H](n2cnc3c(NC4CCCC4)nc(Cl)nc32)[C@H](O)[C@@H]1O)P(=O)(O)O` (stereo partly drawn) [Example 158, (2-(((2R,3S,4R,5R)-5-(2-chloro-6-(cyclopentylamino)-9H-purin-9-yl)-3,4-dihydroxytetrahydrofuran-2-yl)methoxy)-1-methoxypropan-2-yl)phosphonic acid], the negative logarithm of the IC50 (pIC50) was ≥ 7.00.

`COCC(C)(OC[C@H]1O[C@@H](n2ncc3c(NC4CCC4)nc(Cl)nc32)[C@H](O)[C@@H]1O)P(=O)(O)O` (stereo partly drawn) [Example 159, (2-(((2R,3S,4R,5R)-5-(6-chloro-4-(cyclobutylamino)-1H-pyrazolo[3,4-d]pyrimidin-1-yl)-3,4-dihydroxytetrahydrofuran-2-yl)methoxy)-1-methoxypropan-2-yl)phosphonic acid]: the pIC50 is ≥ 7.00.

Regarding `COCC(OC[C@H]1O[C@@H](n2cnc3c(NC4CCCC4)nc(Cl)nc32)[C@H](O)[C@@H]1O)P(=O)(O)O` (stereo partly drawn) [Example 160, (1-(((2R,3S,4R,5R)-5-(2-chloro-6-(cyclopentylamino)-9H-purin-9-yl)-3,4-dihydroxytetrahydrofuran-2-yl)methoxy)-2-methoxyethyl)phosphonic acid], the negative-log IC50 (pIC50) is ≥ 7.00.

Turning to `COC[C@@H](OC[C@H]1O[C@@H](n2nnc3c(NC4CCCC4)cc(Cl)nc32)[C@H](O)[C@@H]1O)P(=O)(O)O` [Example 161, ((S)-1-(((2R,3S,4R,5R)-5-(5-chloro-7-(cyclopentylamino)-3H-[1,2,3]triazolo[4,5-b]pyridin-3-yl)-3,4-dihydroxytetrahydrofuran-2-yl)methoxy)-2-methoxyethyl)phosphonic acid], the pIC50 was ≥ 7.00.

On to `O=P(O)(O)CS(=O)(=O)C[C@H]1O[C@@H](n2ncc3c(NC4CCCC4)cc(Cl)nc32)[C@H](O)[C@@H]1O` [Example 162, (((((2S,3S,4R,5R)-5-(6-chloro-4-(cyclopentylamino)-1H-pyrazolo[3,4-b]pyridin-1-yl)-3,4-dihydroxytetrahydrofuran-2-yl)methyl)sulfonyl)methyl)phosphonic acid], for which the pIC50 was ≥ 7.00.

By pIC50 is commonly meant the IC50 on a negative log10 scale, so that one unit is a factor of ten. Read a low pIC50 as a large IC50.
